# Patent US20080081798A1, “Pharmaceutical combinations for the treatment of head-aches and migraine attacks as well as blisters and packs that contain them” (priority 2006, published 2008)
# Tested on: patients suffering from migraine (moderate or severe migraine attacks)
# Assay: Double-blind, randomized, cross-over, placebo-controlled study of rizatriptan and trimebutine for treating migraine
# Type: in vivo, human
# Protocol: Thirty-two patients (24 women and 8 men, aged between 21 and 61, average=39.7) suffering from migraine according to the criteria of the International Headache Association were randomized to treat 2 consecutive moderate or severe attacks with a tablet of 10 mg of rizatriptan and a capsule of 200 mg of trimebutine and 2 attacks with the same amount of triptan and placebo, and vice-versa. The severity of the attacks, as well as the presence of nauseas and photophobia at the moment of ingesting the drug after 1, 2 and 4 hours were collected.
smiles,measurement,setting,value
CN(C)CCc1c[nH]c2ccc(Cn3cncn3)cc12 [rizatriptan],without pain after 1 hour (share of the 38 attacks without pain),"10 mg rizatriptan tablet with 200 mg trimebutine capsule or placebo, 1 hour, of the 38 attacks, p<0.001",21.1%
same,without pain after 2 hours (share of the 67 attacks),"10 mg rizatriptan tablet with 200 mg trimebutine capsule or placebo, 2 hours, of the 67 attacks, p<0.0001",29.9%
same,adverse events present (number of attacks treated),64 attacks treated with each drug regimen,18 attacks
same,free from nausea after 1 hour,"1 hour, p<0.001",23.7%
same,free from photophobia after 1 hour,"1 hour, p<0.001",26.7%
